Measured values from patent US10597388B2, “Pyridazinone herbicides” (FMC CORPORATION, priority 2014, dated 2020).

Tests used:
Format in all cases: in vivo
kochia (Kochia scoparia) = experiment: Test C greenhouse herbicide test, postemergence
Method in brief: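 Ratings are visual scores from 0 (no effect) to 100 (complete control), made against controls 13–15 d after treatment. Postemergence sprays were applied in the greenhouse to plants 2–18 cm tall (1- to 4-leaf stage) in peat-moss/vermiculite potting medium.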

[1] = system: pigweed (Amaranthus retroflexus); experiment: Test C greenhouse herbicide test, pre- and postemergence
Method in brief: (§1)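 Percent-control ratings (0 none, 100 complete) came from visual comparison with controls held alongside in the greenhouse for 13–15 d. Treatments covered soil application at sowing and foliar application to young plants 2–18 cm tall.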

[2] = system: foxtail, giant (giant foxtail, Setaria faberii); experiment: as above
Method in brief: as §1

[3] = system: wheat (winter wheat, Triticum aestivum); experiment: as above
Method in brief: as §1

[4] = system: crabgrass, large (large crabgrass, Digitaria sanguinalis); experiment: as above
Method in brief: as §1

[5] = system: ragweed (common ragweed, Ambrosia elatior); experiment: as above
Method in brief: as §1

[6] = system: morningglory (Ipomoea coccinea); experiment: as above
Method in brief: as §1

[7] = system: johnsongrass (Sorghum halepense); experiment: as above
Method in brief: as §1

[8] = system: blackgrass (Alopecurus myosuroides); experiment: as above
Method in brief: as §1

corn (Zea mays) = experiment: as above
Method in brief: as §1

[9] = system: oilseed rape (Brassica napus); experiment: as above
Method in brief: as §1

[10] = system: lambsquarters (Chenopodium album); experiment: as above
Method in brief: as §1

[11] = system: ryegrass, Italian (Italian ryegrass, Lolium multiflorum); experiment: as above
Method in brief: as §1

soybean (Glycine max) = experiment: as above
Method in brief: as §1

[12] = system: waterhemp (common waterhemp, Amaranthus rudis); experiment: as above
Method in brief: as §1

[13] = system: nutsedge, yellow (yellow nutsedge, Cyperus esculentus); experiment: as above
Method in brief: as §1

[14] = Postemergence, 31 g ai/ha, scale 0 to 100 (0 no effect, 100 complete control)
[15] = Postemergence, 125 g ai/ha, scale 0 to 100, 0 is no effect, 100 is complete control
[16] = Postemergence, 250 g ai/ha, scale 0 to 100, 0 no effect, 100 complete control, 13 to 15 d
[17] = postemergence, 62 g ai/ha, scale 0 to 100, 0 no effect, 100 complete control
[18] = Postemergence, 62 g ai/ha, 0 to 100 scale (0 no effect, 100 complete control)
[19] = Postemergence, 250 g ai/ha, scale 0 to 100, 0 is no effect, 100 is complete control
[20] = postemergence, 125 g ai/ha, scale 0 to 100, 0 no effect, 100 complete control

## Cc1nn(C)c(=O)c(-c2ccc(F)c3ccccc23)c1OC(=O)CC(F)(F)F [Compound 123]
Kochia (Kochia scoparia); [14]
  Plant response rating, Kochia: 95
Kochia (Kochia scoparia); [15]
  Plant response rating, Kochia: 95
Kochia (Kochia scoparia); [16]
  Plant response rating, Kochia: 98
[1]; [14]
  Plant response rating, Pigweed: 65
[1]; [15]
  Plant response rating, Pigweed: 80
[1]; [16]
  Plant response rating, Pigweed: 98
[2]; [14]
  Plant response rating, Foxtail, Giant: 20
[2]; [15]
  Plant response rating, Foxtail, Giant: 35
[2]; [16]
  Plant response rating, Foxtail, Giant: 80
[3]; [14]
  Plant response rating, Wheat: 5
[3]; [15]
  Plant response rating, Wheat: 15
[3]; [16]
  Plant response rating, Wheat: 20
[4]; [14]
  Plant response rating, Crabgrass, Large: 10
[4]; [15]
  Plant response rating, Crabgrass, Large: 30
[4]; [16]
  Plant response rating, Crabgrass, Large: 75
[4]; [17]
  Crabgrass, Large plant response rating: 35
[5]; [14]
  Plant response rating, Ragweed: 75
[5]; [15]
  Plant response rating, Ragweed: 95
[5]; [16]
  Plant response rating, Ragweed: 98
[6]; [14]
  Plant response rating, Morningglory: 95
[6]; [15]
  Plant response rating, Morningglory: 98
[6]; [16]
  Plant response rating, Morningglory: 100
[7]; [14]
  Plant response rating, Johnsongrass: 5
[7]; [15]
  Plant response rating, Johnsongrass: 20
[7]; [16]
  Plant response rating, Johnsongrass: 25
[8]; [14]
  Plant response rating, Blackgrass: 15
[8]; [15]
  Plant response rating, Blackgrass: 45
[8]; [16]
  Plant response rating, Blackgrass: 45
[8]; [17]
  Blackgrass plant response rating: 35
Corn (Zea mays); [14]
  Plant response rating, Corn: 10
Corn (Zea mays); [15]
  Plant response rating, Corn: 20
Corn (Zea mays); [16]
  Plant response rating, Corn: 20
Corn (Zea mays); [17]
  Corn plant response rating: 15
[9]; [14]
  Plant response rating, Oilseed Rape: 0
[9]; [15]
  Plant response rating, Oilseed Rape: 0
[9]; [16]
  Plant response rating, Oilseed Rape: 5
[10]; [14]
  Plant response rating, Lambsquarters: 95
[10]; [15]
  Plant response rating, Lambsquarters: 100
[10]; [16]
  Plant response rating, Lambsquarters: 100
[11]; [14]
  Plant response rating, Ryegrass, Italian: 90
[11]; [15]
  Plant response rating, Ryegrass, Italian: 90
[11]; [16]
  Plant response rating, Ryegrass, Italian: 95
Soybean (Glycine max); [14]
  Plant response rating, Soybean: 10
Soybean (Glycine max); [15]
  Plant response rating, Soybean: 20
Soybean (Glycine max); [16]
  Plant response rating, Soybean: 65
[12]; [14]
  Plant response rating, Waterhemp: 80
[12]; [15]
  Plant response rating, Waterhemp: 100
[12]; [16]
  Plant response rating, Waterhemp: 100
[13]; [14]
  Plant response rating, Nutsedge, Yellow: 55
[13]; [15]
  Plant response rating, Nutsedge, Yellow: 85
[13]; [16]
  Plant response rating, Nutsedge, Yellow: 90

## Cc1ccc2ccccc2c1-c1c(OC(=O)N2CCOCC2)c(Br)nn(C)c1=O [Compound 176]
Kochia (Kochia scoparia); [14]
  Plant response rating, Kochia: 90
Kochia (Kochia scoparia); [18]
  Kochia plant response rating: 90
Kochia (Kochia scoparia); [19]
  Plant response rating, Kochia: 100
Kochia (Kochia scoparia); [20]
  Kochia plant response rating: 95
[1]; [14]
  Plant response rating, Pigweed: 20
[1]; [18]
  Pigweed plant response rating: 30
[1]; [19]
  Plant response rating, Pigweed: 75
[1]; [20]
  Pigweed plant response rating: 50
[2]; [14]
  Plant response rating, Foxtail, Giant: 5
[2]; [18]
  Foxtail, Giant plant response rating: 15
[2]; [19]
  Plant response rating, Foxtail, Giant: 40
[2]; [20]
  Foxtail, Giant plant response rating: 35
[3]; [14]
  Plant response rating, Wheat: 0
[3]; [18]
  Wheat plant response rating: 5
[3]; [19]
  Plant response rating, Wheat: 40
[3]; [20]
  Wheat plant response rating: 10
[4]; [14]
  Plant response rating, Crabgrass, Large: 10
[4]; [18]
  Crabgrass, Large plant response rating: 5
[4]; [19]
  Plant response rating, Crabgrass, Large: 30
[4]; [20]
  Crabgrass, Large plant response rating: 20
[5]; [14]
  Plant response rating, Ragweed: 0
[5]; [18]
  Ragweed plant response rating: 0
[5]; [19]
  Plant response rating, Ragweed: 0
[5]; [20]
  Ragweed plant response rating: 0
[6]; [14]
  Plant response rating, Morningglory: 85
[6]; [18]
  Morningglory plant response rating: 85
[6]; [19]
  Plant response rating, Morningglory: 100
[6]; [20]
  Morningglory plant response rating: 98
[7]; [14]
  Plant response rating, Johnsongrass: 5
[7]; [18]
  Johnsongrass plant response rating: 5
[7]; [19]
  Plant response rating, Johnsongrass: 10
[7]; [20]
  Johnsongrass plant response rating: 5
[8]; [14]
  Plant response rating, Blackgrass: 0
[8]; [18]
  Blackgrass plant response rating: 0
[8]; [19]
  Plant response rating, Blackgrass: 0
[8]; [20]
  Blackgrass plant response rating: 0
Corn (Zea mays); [14]
  Plant response rating, Corn: 0
Corn (Zea mays); [18]
  Corn plant response rating: 10
Corn (Zea mays); [19]
  Plant response rating, Corn: 5
Corn (Zea mays); [20]
  Corn plant response rating: 0
[9]; [14]
  Plant response rating, Oilseed Rape: 95
[9]; [18]
  Oilseed Rape plant response rating: 95
[9]; [19]
  Plant response rating, Oilseed Rape: 95
[9]; [20]
  Oilseed Rape plant response rating: 95
[10]; [14]
  Plant response rating, Lambsquarters: 60
[10]; [18]
  Lambsquarters plant response rating: 80
[10]; [19]
  Plant response rating, Lambsquarters: 90
[10]; [20]
  Lambsquarters plant response rating: 80
[11]; [14]
  Plant response rating, Ryegrass, Italian: 0
[11]; [18]
  Ryegrass, Italian plant response rating: 0
[11]; [19]
  Plant response rating, Ryegrass, Italian: 10
[11]; [20]
  Ryegrass, Italian plant response rating: 0
Soybean (Glycine max); [14]
  Plant response rating, Soybean: 5
Soybean (Glycine max); [18]
  Soybean plant response rating: 10
Soybean (Glycine max); [19]
  Plant response rating, Soybean: 10
Soybean (Glycine max); [20]
  Soybean plant response rating: 15
[12]; [14]
  Plant response rating, Waterhemp: 20
[12]; [18]
  Waterhemp plant response rating: 40
[12]; [19]
  Plant response rating, Waterhemp: 55
[12]; [20]
  Waterhemp plant response rating: 60
[13]; [14]
  Plant response rating, Nutsedge, Yellow: 5
[13]; [18]
  Nutsedge, Yellow plant response rating: 5
[13]; [19]
  Plant response rating, Nutsedge, Yellow: 5
[13]; [20]
  Nutsedge, Yellow plant response rating: 5
